Reference: patent publication US20250163104A1, “MACROCYCLIC IMMUNOMODULATORS” (priority 2021, published 2025)
Where a SMILES comes first, the peptide text is derived from it. Bridges are numbered along the chain shown (N, C = ends). [ ]: non-standard residue; d: D form. The star is where a group is joined. Phe(4-COOH) = N[C@@H](Cc1ccc(C(=O)O)cc1)C(=O)O; Bip = N[C@@H](Cc1ccc(-c2ccccc2)cc1)C(=O)O; Phe(3-Me) = Cc1cccc(C[C@H](N)C(=O)O)c1; Val(3-OH) = CC(C)(O)[C@H](N)C(=O)O; 3Pal = N[C@@H](Cc1cccnc1)C(=O)O; 4Pal = N[C@@H](Cc1ccncc1)C(=O)O; Cha = N[C@@H](CC1CCCCC1)C(=O)O; Cit = NC(=O)NCCC[C@H](N)C(=O)O; dCha = N[C@H](CC1CCCCC1)C(=O)O; Phg = N[C@H](C(=O)O)c1ccccc1; Carboxymethyl = O=C(O)C*; Orn = NCCC[C@H](N)C(=O)O; Dab = NCC[C@H](N)C(=O)O; Nva = CCC[C@H](N)C(=O)O; Dap = NC[C@H](N)C(=O)O; NHCH2CH2OMe = COCCN*; Propargyl = C#CC*

Biological target: T1, human PD-1 / PD-L1-Ig binding on Jurkat cell line over-expressing human PD-1 (Jurkat-PD-1) (Homo sapiens, UniProt Q15116)
T1 construct: expressed in transfected cells; host or cells: Jurkat
T1 sequence (Q15116 25-288): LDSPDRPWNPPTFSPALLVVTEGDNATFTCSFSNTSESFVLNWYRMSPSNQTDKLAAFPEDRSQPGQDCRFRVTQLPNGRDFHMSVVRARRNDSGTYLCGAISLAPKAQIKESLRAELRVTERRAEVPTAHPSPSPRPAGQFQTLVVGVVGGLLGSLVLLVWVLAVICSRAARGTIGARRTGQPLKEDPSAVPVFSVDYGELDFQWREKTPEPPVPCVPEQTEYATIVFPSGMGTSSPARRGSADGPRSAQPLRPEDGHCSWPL
Assay: Jurkat-PD-1 Cell Binding High-Content Screening Assay (CBA)
Format: cell-based
Conditions: Jurkat-PD-1 cells, PE-labeled PD-L1-Ig 20 nM final; read-out: Jurkat HPD1_PDL1 IC50
In short: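 Jurkat cells over-expressing human PD-1, in DMEM/10% FCS, pre-incubated with compound 2 h at 37° C. PE-labeled human PD-L1-Ig (20 nM final) added for 1 h; cells fixed in paraformaldehyde with Hoechst 33342 nuclear stain, washed, and bound fluorescence quantified by high-content imaging.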

SMILES | IC50 [nM]
COCCNC(=O)[C@H](CCN)NC(=O)[C@@H]1CSCC(=O)N[C@@H](Cc2ccncc2)C(=O)N[C@@H](Cc2ccc(C(=O)O)cc2)C(=O)N[C@@H](CC(=O)O)C(=O)N[C@@H](Cc2cccc(C)c2)C(=O)N[C@@H](Cc2ccc(OCC(=O)O)cc2)C(=O)N[C@@H](Cc2ccc(-c3ccccc3)cc2)C(=O)N[C@@H](Cc2ccc(OCC(=O)O)cc2)C(=O)N[C@@H](CCCN)C(=O)N[C@H](CC(C)C)C(=O)N[C@@H](CCN)C(=O)N[C@@H](CC2CCCCC2)C(=O)N[C@@H](C(C)(C)O)C(=O)N[C@@H](CO)C(=O)N1 [Compound 2076] ({CH2CO}-[4Pal][Phe(4-COOH)]D[Phe(3-Me)]Y(Carboxymethyl)[Bip]Y(Carboxymethyl)[Orn][dL][Dab][Cha][Val(3-OH)]SC[Dab]-NHCH2CH2OMe; thioether N-14) | 240
CCC[C@@H]1NC(=O)CSC[C@@H](C(=O)N[C@@H](CCN)C(N)=O)NC(=O)[C@H](CO)NC(=O)[C@H](C(C)(C)O)NC(=O)[C@H](CC2CCCCC2)NC(=O)[C@H](CCN)NC(=O)[C@@H](CC(C)C)NC(=O)[C@H](CCCN)NC(=O)[C@H](Cc2ccc(OCC(=O)O)cc2)NC(=O)[C@H](Cc2ccc(-c3ccccc3)cc2)NC(=O)[C@H](Cc2ccc(OCC(=O)O)cc2)NC(=O)[C@H](Cc2cccc(C)c2)NC(=O)[C@H](CC(=O)O)NC(=O)[C@H](Cc2ccc(C(=O)O)cc2)NC1=O [Compound 2080] ({CH2CO}-[Nva][Phe(4-COOH)]D[Phe(3-Me)]Y(Carboxymethyl)[Bip]Y(Carboxymethyl)[Orn][dL][Dab][Cha][Val(3-OH)]SC[Dab]-NH2; thioether N-14) | 4.2
CC[C@H](C)[C@@H]1NC(=O)[C@H](Cc2ccc(-c3ccccc3)cc2)NC(=O)[C@H](CC(C)C)NC(=O)[C@H](Cc2c[nH]c3ccccc23)NC(=O)[C@H](CC(=O)O)NC(=O)[C@H](Cc2ccc(O)cc2)NC(=O)[C@H](Cc2ccccc2)NC(=O)CSC[C@@H](C(=O)NCC(N)=O)NC(=O)[C@H](CO)NC(=O)[C@H](C(C)C)NC(=O)[C@H](CC(C)C)NC(=O)[C@H](CCN)NC(=O)[C@@H](CC(C)C)NC(=O)[C@H](CCCN)NC1=O [Compound 1230] ({CH2CO}-FYDWL[Bip]I[Orn][dL][Dab]LVSCG-NH2; thioether N-14) | 18.1
CC(C)C[C@@H]1NC(=O)[C@H](CCN)NC(=O)[C@@H](CC(C)C)NC(=O)[C@H](CCCN)NC(=O)[C@H](CCCNC(=N)N)NC(=O)[C@H](Cc2ccc(-c3ccccc3)cc2)NC(=O)[C@H](C(C)C)NC(=O)[C@H](Cc2c[nH]c3ccccc23)NC(=O)[C@H](CC(=O)O)NC(=O)[C@H](Cc2ccc(O)cc2)NC(=O)[C@H](CC(N)=O)NC(=O)CSC[C@@H](C(=O)N[C@@H](C)C(N)=O)NC(=O)[C@H]([C@@H](C)O)NC(=O)[C@H](C(C)C)NC1=O [Compound 1005] ({CH2CO}-NYDWV[Bip]R[Orn][dL][Dab]LVTCA-NH2; thioether N-14) | 35.8
C#CCOc1ccc(C[C@@H]2NC(=O)[C@H](C(C)C)NC(=O)[C@H](CC3CCCCC3)NC(=O)[C@H](CCN)NC(=O)[C@@H](CC(C)C)NC(=O)[C@H](CCCN)NC(=O)[C@H](Cc3ccc(OCC(=O)O)cc3)NC(=O)[C@H](Cc3ccc(-c4ccccc4)cc3)NC(=O)[C@H](Cc3ccc(OCC(=O)O)cc3)NC(=O)[C@H](Cc3cccc(C)c3)NC(=O)[C@H](CC(=O)O)NC(=O)[C@H](Cc3ccc(OCC(=O)O)cc3)NC(=O)[C@H](Cc3cnc[nH]3)NC(=O)CSC[C@@H](C(=O)N[C@@H](CCN)C(N)=O)NC2=O)cc1 [Compound 1813] ({CH2CO}-HY(Carboxymethyl)D[Phe(3-Me)]Y(Carboxymethyl)[Bip]Y(Carboxymethyl)[Orn][dL][Dab][Cha]VY(Propargyl)C[Dab]-NH2; thioether N-14) | 0.7
CC(C)C[C@@H]1NC(=O)[C@H](CCN)NC(=O)[C@@H](CC(C)C)NC(=O)[C@H](CCCCN)NC(=O)[C@H](CCCNC(N)=O)NC(=O)[C@H](Cc2ccc(-c3ccccc3)cc2)NC(=O)[C@H](C(C)C)NC(=O)[C@H](Cc2c[nH]c3ccccc23)NC(=O)[C@H](CC(=O)O)NC(=O)[C@H](Cc2ccc(O)cc2)NC(=O)[C@H](CC(N)=O)NC(=O)CSC[C@@H](C(=O)N[C@@H](C)C(N)=O)NC(=O)[C@H]([C@@H](C)O)NC(=O)[C@H](C(C)C)NC1=O [Compound 1019] ({CH2CO}-NYDWV[Bip][Cit]K[dL][Dab]LVTCA-NH2; thioether N-14) | 20.6
CC(C)C[C@@H]1NC(=O)[C@H](CCN)NC(=O)[C@@H](CC(C)C)NC(=O)[C@H](CCCN)NC(=O)[C@H](Cc2ccc(-c3ccccc3)cc2)NC(=O)[C@H](Cc2ccc(-c3ccccc3)cc2)NC(=O)[C@H](C(C)C)NC(=O)[C@H](Cc2c[nH]c3ccccc23)NC(=O)[C@H](CC(=O)O)NC(=O)[C@H](Cc2ccc(OCC(=O)O)cc2)NC(=O)[C@H](Cc2ccc(OCC(=O)O)cc2)NC(=O)CSC[C@@H](C(=O)N[C@@H](C)C(N)=O)NC(=O)[C@H]([C@@H](C)O)NC(=O)[C@H](C(C)C)NC1=O [Compound 1246] ({CH2CO}-Y(Carboxymethyl)Y(Carboxymethyl)DWV[Bip][Bip][Orn][dL][Dab]LVTCA-NH2; thioether N-14) | 84.4
CC(C)C[C@@H]1NC(=O)[C@H](CCN)NC(=O)[C@@H](CC(C)C)NC(=O)[C@H](CCCCN)NC(=O)[C@H](C(C)C)NC(=O)[C@H](Cc2ccc(-c3ccccc3)cc2)NC(=O)[C@H](C(C)C)NC(=O)[C@H](Cc2c[nH]c3ccccc23)NC(=O)[C@H](CC(N)=O)NC(=O)[C@H](Cc2ccc(O)cc2)NC(=O)[C@H](CC(N)=O)NC(=O)CSC[C@@H](C(=O)NCC(N)=O)NC(=O)[C@H]([C@@H](C)O)NC(=O)[C@H](C(C)C)NC1=O [Compound 1085] ({CH2CO}-NYNWV[Bip]VK[dL][Dab]LVTCG-NH2; thioether N-14) | 22.3

Continued, values first:

IC50 [nM] | SMILES
4.1 | Cc1cccc(C[C@@H]2NC(=O)[C@H](CC(=O)O)NC(=O)[C@H](Cc3ccc(C(=O)O)cc3)NC(=O)[C@H](Cc3ccncc3)NC(=O)CSC[C@@H](C(=O)N[C@@H](C)C(N)=O)NC(=O)[C@H]([C@@H](C)O)NC(=O)[C@H](C(C)C)NC(=O)[C@H](CC(C)C)NC(=O)[C@H](CCN)NC(=O)[C@@H](CC(C)C)NC(=O)[C@H](CCCN)NC(=O)[C@H](CCCNC(N)=O)NC(=O)[C@H](Cc3ccc(-c4ccccc4)cc3)NC(=O)[C@H](C(C)C)NC2=O)c1 [Compound 1178] ({CH2CO}-[4Pal][Phe(4-COOH)]D[Phe(3-Me)]V[Bip][Cit][Orn][dL][Dab]LVTCA-NH2; thioether N-14)
24 | CC(C)C[C@H]1NC(=O)[C@H](CCCN)NC(=O)[C@H](CCC(=O)O)NC(=O)[C@H](Cc2ccc(-c3ccccc3)cc2)NC(=O)[C@H](c2ccccc2)NC(=O)[C@H](Cc2c[nH]c3ccccc23)NC(=O)[C@H](CC(=O)O)NC(=O)[C@H](Cc2ccc(OCC(=O)O)cc2)NC(=O)[C@H](CN)NC(=O)CSC[C@@H](C(=O)N[C@@H](C)C(N)=O)NC(=O)[C@H]([C@@H](C)O)NC(=O)[C@H](C(C)C)NC(=O)[C@H](CC2CCCCC2)NC(=O)[C@H](CCN)NC1=O [Compound 1720] ({CH2CO}-[Dap]Y(Carboxymethyl)DW[Phg][Bip]E[Orn][dL][Dab][Cha]VTCA-NH2; thioether N-14)
162 | CC(C)C[C@H]1NC(=O)[C@H](CCCN)NC(=O)[C@H](CCCNC(N)=O)NC(=O)[C@H](Cc2ccc(-c3ccccc3)cc2)NC(=O)[C@H](C(C)C)NC(=O)[C@H](Cc2c[nH]c3ccccc23)NC(=O)[C@H](CC(=O)O)NC(=O)[C@H](Cc2ccc(OCC(=O)O)cc2)NC(=O)[C@H](CN)NC(=O)CSC[C@@H](C(=O)N[C@@H](C)C(N)=O)NC(=O)[C@H]([C@@H](C)O)NC(=O)[C@H](C(C)C)NC(=O)[C@H](Cc2cccnc2)NC(=O)[C@H](CCN)NC1=O [Compound 1350]
63.6 | C#CC[C@H](NC(=O)[C@H](C)NC(=O)[C@@H]1CSCC(=O)N[C@@H](CN)C(=O)N[C@@H](Cc2ccc(OCC(=O)O)cc2)C(=O)N[C@@H](CC(=O)O)C(=O)N[C@@H](Cc2cccc(C)c2)C(=O)N[C@@H](C(C)C)C(=O)N[C@@H](Cc2ccc(-c3ccccc3)cc2)C(=O)N[C@@H](CCCNC(N)=O)C(=O)N[C@@H](CCCN)C(=O)N[C@H](CC(C)C)C(=O)N[C@@H](CCN)C(=O)N[C@@H](CC2CCCCC2)C(=O)N[C@@H](C(C)C)C(=O)N[C@@H]([C@@H](C)O)C(=O)N1)C(=O)O [Compound 2262]
280 | Cc1cccc(C[C@@H]2NC(=O)[C@H](CC(=O)O)NC(=O)[C@H](Cc3ccc(OCC(=O)O)cc3)NC(=O)[C@H](Cc3cccnc3)NC(=O)CSC[C@@H](C(N)=O)NC(=O)[C@H]([C@@H](C)O)NC(=O)[C@H](C(C)C)NC(=O)[C@H](CC(C)C)NC(=O)[C@H](CCN)NC(=O)[C@@H](CC(C)C)NC(=O)[C@H](CCCN)NC(=O)[C@H](CCCNC(N)=O)NC(=O)[C@H](Cc3ccc(-c4ccccc4)cc3)NC(=O)[C@H](C(C)C)NC2=O)c1 [Compound 1655] ({CH2CO}-[3Pal]Y(Carboxymethyl)D[Phe(3-Me)]V[Bip][Cit][Orn][dL][Dab]LVTC-NH2; thioether N-14)
16.7 | CC(C)[C@@H]1NC(=O)[C@H](Cc2c[nH]c3ccccc23)NC(=O)[C@H](CC(=O)O)NC(=O)[C@H](Cc2ccc(OCC(=O)O)cc2)NC(=O)[C@H](Cc2ccncc2)NC(=O)CSC[C@@H](C(=O)N[C@@H](C)C(N)=O)NC(=O)[C@H]([C@@H](C)O)NC(=O)[C@H](C(C)C)NC(=O)[C@H](CC2CCCCC2)NC(=O)[C@H](CCN)NC(=O)[C@@H](CC2CCCCC2)NC(=O)[C@H](CCCN)NC(=O)[C@H](CCCNC(N)=O)NC(=O)[C@H](Cc2ccc(-c3ccccc3)cc2)NC1=O [Compound 1644] ({CH2CO}-[4Pal]Y(Carboxymethyl)DWV[Bip][Cit][Orn][dCha][Dab][Cha]VTCA-NH2; thioether N-14)
